The values below come from patent US12637411B2, “Structurally modified opioids for prevention and treatment of diseases and conditions” (University of Padova, priority 2019, dated 2026).

For data set [1] the following is noted: compared to dextromethadone and deuterated dextromethadone (D9, D10, D16), PCT/US2018/016159; cited from earlier work.
The nature of data set [2]: Female Urine Sniffing Test (FUST). The following applies: 24 hr after administration, vs. vehicle.
Data set [3] concerns ARPE-19 cells. Briefly: ARPE-19 cell viability after L-glutamate. The following applies: pretreatment before 1 mM L-glutamate; dextromethadone 30 microMolar.
Data set [4] can be described thus: Chronic Unpredictable Stress (CUS) protocol with SPT, FUST, NSFT. The following applies: single dose.
Description: The present inventors also performed behavioral analysis of the effect of both d-methadone and ketamine on rats exposed to a Chronic Unpredictable Stress (CUS) protocol.
Data set [5] in a line: Phase 1 Multiple Ascending Dose (MAD) study. The class given is in vivo, healthy opioid-naïve volunteers. The method, then: The objective of the Multiple Ascending Dose (MAD) study was to establish PK, PD, and safety of once daily, 10-day administration. Administration involved cohorts of 25, 50, 75 mg and N=24.
The subject of data set [6] is brain derived neurotrophic factor (BDNF). Conditions: 25 mg, 4 hours after administration, vs pre-treatment.
In data set [7] the test system is ARPE-19 cells. Briefly: Relative gene expression (NMDAR1, p65, TNF-α, IL-6) in ARPE-19 cells. The class given is cell-based. The following applies: pretreatment before 1 mM L-glutamate. The protocol: Once the effect of NMDAR antagonists on nuclear translocation of p65 was verified, in order to confirm their anti-inflammatory effect, the present inventors investigated the changes of gene expression levels of the pro-inflammatory cytokines IL-6 (interleukin-6) and TNF-α, the transcription factor p65 and the NMDA receptor.
The first gene for which the level of gene expression was assessed is the 1A subunit of NMDAR receptor dimer (known as NMDAR1).

For data set [8], the system named is GluR1 and PSD95. Briefly: mTORC1 signaling proteins and synaptic proteins in PFC and hippocampus. The following applies: rat models of depression.
Description: Levels of phospho proteins were normalized to total proteins and levels of synaptic proteins were normalized the GAPDH. Results are the mean±S.E.M., n=10-12/group.
Data set [9] relates to ARPE-19 cells. The data set is described as follows: ROS production in ARPE-19 cells. The following applies: 1 mM L-Glu + 30 μM antagonist; statistical significance not reached.
Protocol: This study was conducted also on the retinal cell line ARPE-19 in order to verify how NMDAR activation and blockade influence ROS production.
A short description of data set [10]: Phase 1 Single Ascending Dose (SAD) study. The method, then: The Single Ascending Dose (SAD) study included a parallel group, double-blind, placebo-controlled design. The objectives of the study were to establish PK, PD, and safety of single dose administration. Administration involved cohorts of 5, 20, 60, 100, 150, 200 mg and N=42.
Data set [11] in a line: Novelty Suppressed Feeding Test (NSFT). The following applies: 72 hr after administration, vs. vehicle.
The subject of data set [12] is NMDAR. The following applies: cited from earlier work; for trapping: Zanos et al. 2018.
A short description of data set [13]: Forced Swim Test (FST). In kind it is in vivo. The following applies: drug treated vs. vehicle treated animals; d-methadone 10, 20, 40 mg/kg.

Turning to `COc1ccc2c(c1)[C@]13CCCC[C@@H]1[C@H](C2)N(C)CC3` [Dextromethorphan, dextromethorphan], the half-life entry in data set [1] is recorded as “significantly shorter half-life”.

Consider `CCC(=O)C(C[C@H](C)N(C)C)(c1ccccc1)c1ccccc1` [dextromethadone], for which, in data set [2], the “effect in the Female Urine Sniffing Test” value is on record as “significant improvements”. In addition, in data set [3], the “effect on L-glutamate-induced cell viability decrease” value is “protective effect on cell viability”. Also, in data set [4], the “behavioral effects of CUS (SPT, FUST, NSFT)” value is listed as “prevented the behavioral effects of CUS”. For the same compound, in data set [5] (at the tested doses (SAD and MAD)), the “dissociative or psychotomimetic adverse events” value is “did not cause dissociative or psychotomimetic adverse events”. In addition, the tolerability entry in [5] (daily doses up to 75 mg for 10 days (single doses up to 150 mg)) is reported as “well tolerated”. Also, the “PK: Cmax, AUCtau Day 1; Cmax, AUCtau, Css Day 10” value in data set [5] (once daily 25, 50, 75 mg, 10 days) was “linear PK with dose proportionality”. Moreover, in data set [6], the “subjects with an increase in BDNF levels post treatment” value is listed as 6 of 6. Further, in data set [7], the IL-6 gene expression result is on record as “tendency to decrease”, the NMDAR1 gene expression result was “up to 9 times when compared to the expression level of vehicle-treated cells”, the TNF-α gene expression result was “restored to normal levels” and the p65 gene expression result is recorded as “decrease in gene expression of p65”. Further, the “levels of GluR1 and PSD95” value in data set [8] was “increase”. Moreover, the ROS production entry in [9] was “tendency to decrease”. Moreover, the “Maximum tolerated dose (MTD)” value in data set [10] (single dose) stood at 150 mg. In addition, the opioid effects result in data set [10] (up to 150 mg) was “no clinically significant opioid effects”. In addition, the “effect in the Novelty Suppressed Feeding Test” value in data set [11] was “significant improvements”.

In the case of `c1ccc(C2(N3CCCCC3)CCCCC2)cc1` [PCP], the trapping in [12] is recorded as 98%.

As for `CC12CC3CC(C)(C1)CC(N)(C3)C2` [Memantine, memantine], in data set [12] (NMDA receptor block), the off rate was around 5 s and the on rate is 1 s.

In the case of `CNC1(c2ccccc2Cl)CCCCC1=O` (stereo not shown) [Ketamine, ketamine], the “effect in the Female Urine Sniffing Test” value in [2] was “significant improvements”. Besides, in data set [4], the “behavioral effects of CUS (SPT, FUST, NSFT)” value is on record as “prevented the behavioral effects of CUS”. In data set [13], the “effect in the Forced Swim Test (immobility, climbing, swimming counts)” value is listed as “significant improvements”. In addition, in data set [11], the “effect in the Novelty Suppressed Feeding Test” value is reported as “significant improvements”. The trapping in [12] was 86%.

`C[C@]12N[C@H](Cc3ccccc31)c1ccccc12` [MK-801]: in [3], the “effect on L-glutamate-induced cell viability decrease” value is listed as “protective effect on cell viability”. Besides, in data set [7], the IL-6 gene expression result is recorded as “tendency to decrease”, the NMDAR1 gene expression entry is “only slightly evident” and the TNF-α gene expression entry is “restored to normal levels”. Besides, the ROS production entry in data set [9] is given as “tendency to decrease”. Also, the trapping in [12] is reported as 100%.
